Like-named read-outs stand apart in the source and are kept apart here.
Experiments:
Format in all cases: cell-based
PPAR-alpha = biological target: T1, PPAR-alpha (Homo sapiens, UniProt Q07869); test: human PPAR-GAL4 chimera luciferase reporter assay in CV-1 cells, PPAR-alpha
T1 construct: expressed in transfected cells; host or cells: CV-1 cells
T1 sequence (Q07869 239-466 limits assumed): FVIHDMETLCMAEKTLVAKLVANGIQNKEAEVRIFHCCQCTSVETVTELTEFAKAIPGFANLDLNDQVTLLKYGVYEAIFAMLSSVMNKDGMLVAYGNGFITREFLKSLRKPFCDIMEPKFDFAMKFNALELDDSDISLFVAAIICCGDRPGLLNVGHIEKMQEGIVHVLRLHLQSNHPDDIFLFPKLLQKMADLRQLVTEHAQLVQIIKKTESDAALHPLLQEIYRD
Protocol: (§1) The compounds were evaluated in a cell-based assay to determine their human PPAR activity. The plasmids for human PPAR-GAL4 chimeras were prepared by fusing amplified cDNAs encoding the LBDs of PPARs to the C-terminal end of the yeast GAL4 DNA binding domain. CV-1 cells were grown and transiently transected with PerFectin (GTS, San Diego, Calif.) according to the manufacturer's protocol along with a luciferase reporter. Eight hours after transfection, 50 μl of cells were replated into 384 well plates ([…]). Sixteen hours after replating, cells were treated with either compounds or 1% DMSO for 24 hours. Luciferase activity was then assayed with Britelite (Perkin Elmer) following the manufacturer's protocol and measured with either the Perkin Elmer Viewlux or Molecular Devices Acquest.
(§2) Compounds may be screened for functional potency in transient transfection assays in CV-1 cells for their ability to activate the PPAR subtypes (transactivation assay). A previously established chimeric receptor system was utilized to allow comparison of the relative transcriptional activity of the receptor subtypes on the same synthetic response element and to prevent endogenous receptor activation from complicating the interpretation of results. See, for example, Lehmann, J. M.; Moore, L. B.; Smith-Oliver, T. A; Wilkinson, W. O.; Willson, T. M.; Kliewer, S. A., An antidiabetic thiazolidinedione is a high affinity ligand for peroxisome proliferator-activated receptory γ (PPARγ), J. Biol. Chem., 1995, 270, 12953-6. The ligand binding domains for murine and human PPAR-alpha, PPAR-gamma, and PPAR-delta are each fused to the yeast transcription factor GAL4 DNA binding domain. CV-1 cells were transiently transfected with expression vectors for the respective PPAR chimera along with a reporter construct containing four or five copies of the GAL4 DNA binding site driving expression of luciferase. After 8-16 h, the cells are replated into multi-well assay plates and the media is exchanged to phenol-red free DME medium supplemented with 5% delipidated calf serum. 4 hours after replating, cells were treated with either compounds or 1% DMSO for 20-24 hours. Luciferase activity was then assayed with Britelite (Perkin Elmer) following the manufacturer's protocol and measured with either the Perkin Elmer Viewlux or Molecular Devices Acquest (see, for example, Kliewer, S. A., et. al. Cell 1995, 83, 813-819). Rosiglitazone is used as a positive control in the hPPAR-γ assay. Wy-14643 and GW7647 is used as a positive control in the hPPAR-α assay. GW501516 is used as the positive control in the hPPAR-δ assay.

PPAR-gamma = biological target: T2, PPAR-gamma (Homo sapiens, UniProt P37231); test: human PPAR-GAL4 chimera luciferase reporter assay in CV-1 cells, PPAR-gamma
T2 construct: expressed in transfected cells; host or cells: CV-1 cells
T2 sequence (P37231 238-503 limits assumed): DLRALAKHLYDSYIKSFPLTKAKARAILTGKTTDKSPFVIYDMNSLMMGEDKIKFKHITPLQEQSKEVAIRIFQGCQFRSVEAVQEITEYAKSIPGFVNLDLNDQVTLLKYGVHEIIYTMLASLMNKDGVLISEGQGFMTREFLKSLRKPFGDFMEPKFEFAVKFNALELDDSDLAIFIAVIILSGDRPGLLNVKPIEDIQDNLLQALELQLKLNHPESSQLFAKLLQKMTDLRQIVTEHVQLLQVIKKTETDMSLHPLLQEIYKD
Protocol: as §1, §2

PPAR-delta = biological target: T3, PPAR-delta (Homo sapiens, UniProt Q03181); test: human PPAR-GAL4 chimera luciferase reporter assay in CV-1 cells, PPAR-delta
T3 construct: expressed in transfected cells; host or cells: CV-1 cells
T3 sequence (Q03181 211-439 limits assumed): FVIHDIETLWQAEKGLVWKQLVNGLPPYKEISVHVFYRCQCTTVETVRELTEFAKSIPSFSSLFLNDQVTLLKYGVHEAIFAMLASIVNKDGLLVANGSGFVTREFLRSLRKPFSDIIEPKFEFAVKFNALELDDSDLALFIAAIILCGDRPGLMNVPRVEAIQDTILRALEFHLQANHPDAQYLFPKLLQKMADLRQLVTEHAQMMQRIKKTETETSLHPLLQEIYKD
Protocol: as §1, §2

[1] = Table 2, Examples 1-10, read-out: PPAR α EC50
[2] = Table 2, Examples 1-10, read-out: PPAR γ EC50
[3] = Table 2, Examples 1-10, read-out: PPAR δ EC50
[4] = Table 3, Examples 11-25, read-out: PPAR alpha (EC50)
[5] = Table 3, Examples 11-25, read-out: PPAR gamma (EC50)
[6] = Table 3, Examples 11-25, read-out: PPAR delta (EC50)

| SMILES | EC50 (PPAR-alpha; [1]) [µM] | EC50 (PPAR-gamma; [2]) [µM] | EC50 (PPAR-delta; [3]) [µM] | EC50 (PPAR-alpha; [4]) [µM] | EC50 (PPAR-gamma; [5]) [µM] | EC50 (PPAR-delta; [6]) [µM] |
| --- | --- | --- | --- | --- | --- | --- |
| Cc1nc(-c2ccc(C(F)(F)F)cc2)sc1COc1cccc(CC(=O)O)c1 [Example 1, {3-[4-methyl-2-(4-trifluoromethyl-phenyl)-thiazol-5-ylmethoxy]-phenyl}-acetic acid] | < 1 | 1 to 10 | < 1 | – | – | – |
| Cc1nc(-c2ccc(C(F)(F)F)cc2)sc1CSc1cccc(CC(=O)O)c1 [Example 2, {3-[4-methyl-2-(4-trifluoromethyl-phenyl)-thiazol-5-ylmethylsulfanyl]-phenyl}-acetic acid] | < 1 | 1 to 10 | < 1 | – | – | – |
| Cc1nc(-c2ccc(C(F)(F)F)cc2)sc1COc1ccc2c(ccn2CC(=O)O)c1 [Example 3, {5-[4-methyl-2-(4-trifluoromethyl-phenyl)-thiazol-5-ylmethoxy]-indol-1-yl}-acetic acid] | > 10 | > 10 | > 10 | – | – | – |
| Cc1nc(-c2ccc(C(F)(F)F)cc2)sc1COc1cccc2c1ccn2CC(=O)O [Example 4, {4-[4-methyl-2-(4-trifluoromethyl-phenyl)-thiazol-5-ylmethoxy]-indol-1-yl}-acetic acid] | > 10 | 1 to 10 | < 1 | – | – | – |
| Cc1nc(-c2ccc(C(F)(F)F)cc2)sc1COc1ccc2ccn(CC(=O)O)c2c1 [Example 5, {6-[4-methyl-2-(4-trifluoromethyl-phenyl)-thiazol-5-ylmethoxy]-indol-1-yl}-acetic acid] | > 10 | 1 to 10 | < 1 | – | – | – |
| Cc1nc(-c2ccc(C(F)(F)F)cc2)sc1COc1cccc2ccn(CC(=O)O)c12 [Example 6, {7-[4-methyl-2-(4-trifluoromethyl-phenyl)-thiazol-5-ylmethoxy]-indol-1-yl}-acetic acid] | > 10 | > 10 | > 10 | – | – | – |
| Cc1nc(-c2ccc(C(F)(F)F)cc2)sc1COc1ccc2[nH]cc(CC(=O)O)c2c1 [Example 7, {5-[4-Methyl-2-(4-trifluoromethyl-phenyl)-thiazol-5-ylmethoxy]-1H-indol-3-yl}-acetic acid] | > 10 | < 1 | < 1 | – | – | – |
| Cc1nc(-c2ccc(C(F)(F)F)cc2)sc1Cn1cc(C(=O)O)c2ccccc21 [Example 8] | > 10 | > 10 | > 10 | – | – | – |
| Cc1nc(-c2ccc(C(F)(F)F)cc2)sc1Cn1ccc2c(C(=O)O)cccc21 [Example 9, 1-[4-methyl-2-(4-trifluoromethyl-phenyl)-thiazol-5-ylmethyl]-1H-indole-4-carboxylic acid] | > 10 | > 10 | > 10 | – | – | – |
| Cc1nc(-c2ccc(C(F)(F)F)cc2)sc1Cn1ccc2cc(C(=O)O)ccc21 [Example 10, 1-[4-methyl-2-(4-trifluoromethyl-phenyl)-thiazol-5-ylmethyl]-1H-indole-5-carboxylic acid] | > 10 | > 10 | > 10 | – | – | – |
| Cc1nc(-c2ccc(C(F)(F)F)cc2)sc1Cn1ccc2c(OCC(=O)O)cccc21 [Example 11, {1-[4-Methyl-2-(4-trifluoromethyl-phenyl)-thiazol-5-ylmethyl]-1H-indol-4-yloxy}acetic acid] | – | – | – | > 100 | > 100 | > 100 |
| Cc1nc(-c2ccc(C(F)(F)F)cc2)sc1Cn1ccc2cc(OCC(=O)O)ccc21 [Example 12, {1-[4-Methyl-2-(4-trifluoromethyl-phenyl)-thiazol-5-ylmethyl]-1H-indol-5-yloxy}-acetic acid] | – | – | – | 5 to 100 | 5 to 100 | 5 to 100 |
| Cc1nc(-c2ccc(C(F)(F)F)cc2)sc1Cn1ccc2ccc(OCC(=O)O)cc21 [Example 13, {1-[4-Methyl-2-(4-trifluoromethyl-phenyl)-thiazol-5-ylmethyl]-1H-indol-6-yloxy}-acetic acid] | – | – | – | 5 to 100 | 5 to 100 | < 5 |

Reference: US20050203151A1, “Novel compounds, compositions and uses thereof for treatment of metabolic disorders and related conditions” (Kalypsys, Inc., priority 2003, published 2005)
